# Results taken from publication PMC11714206, “Massively Parallel Screening of Toll/Interleukin‐1 Receptor (TIR)‐Derived Peptides Reveals Multiple Toll‐Like Receptors (TLRs)‐Targeting Immunomodulatory Peptides” (Advanced Science, 2024).
# Values joined by “and” are separate entries in the source; they are usually repeats but may differ in a detail not shown here. Equal entries are not always repeated.
# What was measured:
# MAL^TIR = target: T1, MAL^TIR (Homo sapiens, UniProt P58753); experiment: T‐Surf phage library (P8 and P3) selection against MAL^TIR, four rounds, NGS read counts; type: binding; conditions: for P3_MAL Rank (after) / P3_MAL Rank (before): P3 library; for Population: 4th round of selection against MAL TIR, share of NGS reads; for P8_MAL Rank (after) / P8_MAL Rank (before): P8 library
# T1 construct: MAL (residues 79–221); 6xHis; made in house; host or cells: E. coli BL21 (DE3)
# T1 sequence (P58753 79-221): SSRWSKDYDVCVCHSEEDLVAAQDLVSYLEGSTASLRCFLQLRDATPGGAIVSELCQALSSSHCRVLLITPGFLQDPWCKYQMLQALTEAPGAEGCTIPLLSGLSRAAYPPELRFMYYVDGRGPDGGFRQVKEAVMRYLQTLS
# Procedure, shortened: (§1)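 Read counts come from NGS of phage pools after the fourth selection round, barcoded by 20-cycle PCR and filtered for quality ≥30. Each round: phage incubated 1 h at RT on immobilised TIR protein (5 µg mL^−1, BSA-blocked), washed, HCl-eluted and amplified in E. coli TG1.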
# MyD88^TIR = target: T2, MyD88^TIR (Homo sapiens, UniProt Q99836); experiment: T‐Surf phage library (P8 and P3) selection against MyD88^TIR, four rounds, NGS read counts; type: binding; conditions: for P3_MyD88 Rank (after) / P3_MyD88 Rank (before): P3 library; for Population: 4th round of selection against MyD88 TIR, share of NGS reads; for P8_MyD88 Rank (after) / P8_MyD88 Rank (before): P8 library
# T2 construct: MyD88 (residues 148–296); 6xHis; made in house; host or cells: E. coli BL21 (DE3)
# T2 sequence (Q99836 148-296): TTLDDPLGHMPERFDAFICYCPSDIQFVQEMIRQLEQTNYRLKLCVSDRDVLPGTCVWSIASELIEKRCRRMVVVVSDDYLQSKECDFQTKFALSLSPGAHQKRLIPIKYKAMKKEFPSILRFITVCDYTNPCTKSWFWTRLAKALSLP
# Procedure, shortened: as §1
# [1] = 4R selection against MAL, rank after grouping
# [2] = 4R selection against MAL, rank before grouping
# [3] = P8_MAL pool: P8 T-Surf phage library
# [4] = selection against MyD88, rank after grouping
# [5] = selection against MyD88, rank before grouping
# [6] = P3_MAL: rank by count after grouping
# [7] = P3_MAL: rank by count before grouping
# [8] = P3_MyD88: rank by count after grouping
# [9] = P3_MyD88: rank by count before grouping
# [10] = selection against MAL, rank after grouping
# [11] = selection against MAL, rank before grouping
# [12] = selection against MAL TIR, rank by count after grouping
# [13] = selection against MAL TIR, rank by count before grouping
# [14] = P8_MyD88 pool: P8 T-Surf phage library
# [15] = P3_MAL pool: P3 T-Surf phage library
# [16] = P3_MyD88 pool: P3 T-Surf phage library
# [17] = selection against MyD88 TIR, rank by count after grouping
# [18] = selection against MyD88 TIR, rank by count before grouping
# [19] = 4R selection against MyD88, rank after grouping
# [20] = 4R selection against MyD88, rank before grouping
sequence,measurement,setting,value
AFLYTFLINLTHPTNF,P3_MAL Rank (after),MAL^TIR; [1],588
same,P3_MAL Rank (before),MAL^TIR; [2],1798
same,Population,MAL^TIR; [3],0.00463% and 0.00432% and 0.00402% and 0.00371% and 0.0034% and 0.00309% and 0.00278%
same,P3_MyD88 Rank (after),MyD88^TIR; [4],537
same,P3_MyD88 Rank (before),MyD88^TIR; [5],1881
ARLPAICIVIWCSVA,Rank (after),MAL^TIR; [6],106
same,Rank (before),MAL^TIR; [7],170
same,Rank (after),MyD88^TIR; [8],140
same,Rank (before),MyD88^TIR; [9],935
DIQRSRFKDDADLVGQ,Rank (after),MAL^TIR; [6],130
same,Rank (before),MAL^TIR; [7],1958
same,Rank (after),MyD88^TIR; [8],391
same,Rank (before),MyD88^TIR; [9],2068
DSQSSRFKDDADLVG,P3_MAL Rank (after),MAL^TIR; [10],511
same,P3_MAL Rank (before),MAL^TIR; [11],1972
same,Rank (after),MyD88^TIR; [8],141
same,Rank (before),MyD88^TIR; [9],635
ELDFSHFWLFDGQAGGEA,P8_MAL Rank (after),MAL^TIR; [12],200
same,P8_MAL Rank (before),MAL^TIR; [13],2049
same,Population,MyD88^TIR; [14],0.00771%
EWIREGLWRLLELSKK,Rank (after),MAL^TIR; [6],135
same,Rank (before),MAL^TIR; [7],411
same,Rank (after),MyD88^TIR; [8],96
same,Rank (before),MyD88^TIR; [9],361
KEVEGWRDALTAAANLSGW,Population,MAL^TIR; [15],0.00376%
same,Rank (after),MAL^TIR; [6],112
same,Rank (before),MAL^TIR; [7],177
same,Population,MyD88^TIR; [16],0.00437%
KEVEGWRDALTKVANLSGW,P3_MAL Rank (after),MAL^TIR; [10],565
same,P3_MAL Rank (before),MAL^TIR; [11],3573
same,P3_MyD88 Rank (after),MyD88^TIR; [4],522
same,P3_MyD88 Rank (before),MyD88^TIR; [5],3634
KEVEGWRDALTKVANLV,Rank (after),MAL^TIR; [6],134
same,Rank (before),MAL^TIR; [7],489
same,Population,MyD88^TIR; [16],0.00349%
KEVEGWRDALTKWRA,P3_MAL Rank (after),MAL^TIR; [1],652
same,P3_MAL Rank (before),MAL^TIR; [2],3567
same,P3_MyD88 Rank (after),MyD88^TIR; [17],250
same,P3_MyD88 Rank (before),MyD88^TIR; [18],1304
KMQKWKDALYEAANLSGW,Population,MAL^TIR; [15],0.0124%
same,Rank (after),MAL^TIR; [6],105
same,Rank (before),MAL^TIR; [7],109
same,Population,MyD88^TIR; [16],0.00437%
LKVESCVRRWKKRAN,P3_MAL Rank (after),MAL^TIR; [12],213
same,P3_MAL Rank (before),MAL^TIR; [13],2293
same,P3_MyD88 Rank (after),MyD88^TIR; [19],592
same,P3_MyD88 Rank (before),MyD88^TIR; [20],2519
LKVESWRDALTKVASL,Rank (after),MAL^TIR; [6],142
same,Rank (before),MAL^TIR; [7],847
same,Population,MyD88^TIR; [16],0.0032%
LKVESWRQALEKRAN,Rank (after),MAL^TIR; [6],122
same,Rank (before),MAL^TIR; [7],331
same,Rank (after),MyD88^TIR; [8],99
same,Rank (before),MyD88^TIR; [9],383
LKVESWRQSREKAGKL,P3_MAL Rank (after),MAL^TIR; [10],557
same,P3_MAL Rank (before),MAL^TIR; [11],2266
same,P3_MyD88 Rank (after),MyD88^TIR; [4],512
same,P3_MyD88 Rank (before),MyD88^TIR; [5],2480
LKWAIRIFGANCVMR,P3_MAL Rank (after),MAL^TIR; [12],274
same,P3_MAL Rank (before),MAL^TIR; [13],844
same,Rank (after),MyD88^TIR; [8],154
same,Rank (before),MyD88^TIR; [9],1073
LKWGDPYFGANCVMR,Rank (after),MAL^TIR; [6],143
same,Rank (before),MAL^TIR; [7],415
same,P3_MyD88 Rank (after),MyD88^TIR; [17],269
same,P3_MyD88 Rank (before),MyD88^TIR; [18],1069
LKWGDPYFWSKLRFA,Rank (after),MAL^TIR; [6],474
same,Rank (before),MAL^TIR; [7],2222
same,P3_MyD88 Rank (after),MyD88^TIR; [17],207
same,P3_MyD88 Rank (before),MyD88^TIR; [18],1061
LKWGYPWFWDRLRFA,Rank (after),MAL^TIR; [6],123
same,Rank (before),MAL^TIR; [7],329
same,Population,MyD88^TIR; [16],0.00495%
LNGAIRIFGANCVMR,P3_MAL Rank (after),MAL^TIR; [10],534
same,P3_MAL Rank (before),MAL^TIR; [11],2194
same,P3_MyD88 Rank (after),MyD88^TIR; [4],494
same,P3_MyD88 Rank (before),MyD88^TIR; [5],2400
LQNQWKLALTKVANLSGW,Rank (after),MAL^TIR; [6],116
same,Rank (before),MAL^TIR; [7],213
same,Rank (after),MyD88^TIR; [8],98
same,Rank (before),MyD88^TIR; [9],680
LQNQWKLALTKVASL,Rank (after),MAL^TIR; [6],132
same,Rank (before),MAL^TIR; [7],327
same,Rank (after),MyD88^TIR; [8],100
same,Rank (before),MyD88^TIR; [9],374
NGHESEIIKEIWIPL,Rank (after),MAL^TIR; [6],429
same,Rank (before),MAL^TIR; [7],3263
same,Rank (after),MyD88^TIR; [8],407
same,Rank (before),MyD88^TIR; [9],3358
NQWKLALTKVANLV,P3_MAL Rank (after),MAL^TIR; [1],638
same,P3_MAL Rank (before),MAL^TIR; [2],3421
same,P3_MyD88 Rank (after),MyD88^TIR; [19],579
same,P3_MyD88 Rank (before),MyD88^TIR; [20],3536
NQWRNALTAAANLNGW,Population,MAL^TIR; [15],0.00564%
same,Population,MyD88^TIR; [16],0.00408%
NQWRNALTAAANLRL,P3_MAL Rank (after),MAL^TIR; [10],550
same,P3_MAL Rank (before),MAL^TIR; [11],3366
same,P3_MyD88 Rank (after),MyD88^TIR; [4],507
same,P3_MyD88 Rank (before),MyD88^TIR; [5],3498
NQWRNALTAAANLS,Population,MAL^TIR; [15],0.0162%
same,Rank (after),MAL^TIR; [6],102
same,Rank (before),MAL^TIR; [7],105
same,Population,MyD88^TIR; [16],0.00553%
NQWRNALYEAANLS,P3_MAL Rank (after),MAL^TIR; [12],198
same,P3_MAL Rank (before),MAL^TIR; [13],1055
same,Rank (after),MyD88^TIR; [8],184
same,Rank (before),MyD88^TIR; [9],1269
RGFLSHLRHHLQAKDH,Rank (after),MAL^TIR; P8_MAL: rank by count after grouping,107
same,Rank (before),MAL^TIR; P8_MAL: rank by count before grouping,654
same,Rank (after),MyD88^TIR; P8_MyD88: rank by NGS read count after grouping,907
same,Rank (before),MyD88^TIR; P8_MyD88: rank by NGS read count before grouping,3395
RLLKWKEALHQFHSW,Rank (after),MAL^TIR; [6],136
same,Rank (before),MAL^TIR; [7],436
same,Rank (after),MyD88^TIR; [8],130
same,Rank (before),MyD88^TIR; [9],708
RNFVAYLFQALANKGI,Population,MAL^TIR; [3],0.0034%
same,P8_MyD88 Rank (after),MyD88^TIR; [4],483
same,P8_MyD88 Rank (before),MyD88^TIR; [5],3397
SFFGINCVIICQRRS,Rank (after),MAL^TIR; [6],126
same,Rank (before),MAL^TIR; [7],360
same,P3_MyD88 Rank (after),MyD88^TIR; [4],545
same,P3_MyD88 Rank (before),MyD88^TIR; [5],2934
SIFREGLWRLLELSKK,Population,MAL^TIR; [15],0.0259%
same,Population,MyD88^TIR; [16],0.00291%
SSFHEGLWRLLELSKK,Population,MAL^TIR; [15],0.00413%
same,Population,MyD88^TIR; [16],0.00466%
SSFREGLWHLLELSKK,Population,MAL^TIR; [15],0.00413%
same,Population,MyD88^TIR; [16],0.00553%
SSFREGLWRLLELSKLRYAM,P3_MAL Rank (after),MAL^TIR; [10],558
same,P3_MAL Rank (before),MAL^TIR; [11],3151
same,P3_MyD88 Rank (after),MyD88^TIR; [4],517
same,P3_MyD88 Rank (before),MyD88^TIR; [5],3173
SSFREGLWRLLVLSKK,Population,MAL^TIR; [15],0.00338%
same,Population,MyD88^TIR; [16],0.00437%
SSFREGPWRLLELSKK,Population,MAL^TIR; [15],0.00338%
same,Population,MyD88^TIR; [16],0.00466%
WFWDKLIYALSRNPH,P3_MAL Rank (after),MAL^TIR; [12],278
same,P3_MAL Rank (before),MAL^TIR; [13],712
same,Rank (after),MyD88^TIR; [8],155
same,Rank (before),MyD88^TIR; [9],549
WFYERLVSLILRDTKV,Population,MAL^TIR; [3],0.00432% and 0.00402% and 0.00371% and 0.0034% and 0.00309% and 0.00278%
same,P8_MyD88 Rank (after),MyD88^TIR; [19],615
same,P8_MyD88 Rank (before),MyD88^TIR; [20],1356
WKNALANIAEILGFEL,P8_MAL Rank (after),MAL^TIR; [12],287
same,P8_MAL Rank (before),MAL^TIR; [13],1431
same,Rank (after),MyD88^TIR; P8_MyD88: rank by count after grouping,162
same,Rank (before),MyD88^TIR; P8_MyD88: rank by count before grouping,180
same,Population,MyD88^TIR; [14],0.00732%
YAFTGHLHRYLVQHCE,Rank (after),MAL^TIR; [6],115
same,Rank (before),MAL^TIR; [7],207
same,Rank (after),MyD88^TIR; [8],169
same,Rank (before),MyD88^TIR; [9],841
YAFTGHLHRYLVQHGV,Population,MAL^TIR; [15],0.0109%
same,Population,MyD88^TIR; [16],0.00378%
YAFTGHLHRYLVQREPAGN,Rank (after),MAL^TIR; [6],413
same,Rank (before),MAL^TIR; [7],1402
same,P3_MyD88 Rank (after),MyD88^TIR; [17],196
same,P3_MyD88 Rank (before),MyD88^TIR; [18],1511
